These are literature values, as cited in patent publication US7998474B2, “Methods for treating an inflammatory disease of the bowel” (Rowett Research Institute, priority 2001, dated 2011).

The series has as its system Clostridium perfringens serotype A. As to conditions: mouse, in vivo; cited from earlier work.

With Bacteroides thetaiotaomicron [BT], the “Resistance of ex-germ free mice to infection by Clostridium perfringens serotype A” value is “did not however increase the resistance”.
